Measurements from patent US20230088214A1, “GLYCOLATE OXIDASE INHIBITORS FOR THE TREATMENT OF DISEASE” (BIOMARIN PHARMACEUTICAL INC., priority 2019, published 2023).
Where two headings read alike, the source gives them in different places.

Molecular target: T1, GO (Homo sapiens, UniProt Q9UJM8)
T1 sequence (Q9UJM8 1-370): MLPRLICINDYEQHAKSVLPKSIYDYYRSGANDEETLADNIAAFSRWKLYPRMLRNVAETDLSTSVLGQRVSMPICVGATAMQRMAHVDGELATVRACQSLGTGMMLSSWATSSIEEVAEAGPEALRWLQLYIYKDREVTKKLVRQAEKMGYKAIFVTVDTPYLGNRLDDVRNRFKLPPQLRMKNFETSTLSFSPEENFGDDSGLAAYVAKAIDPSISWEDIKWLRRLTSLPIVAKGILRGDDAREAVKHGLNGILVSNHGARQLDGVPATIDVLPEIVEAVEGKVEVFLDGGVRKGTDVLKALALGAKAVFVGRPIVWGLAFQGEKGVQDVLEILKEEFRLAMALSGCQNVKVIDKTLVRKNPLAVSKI
Assay: GO Enzymatic Assay (Assay 1)
Format: biochemical
Set-up: purchased Novus Biologicals NBP1-72412
Protocol: Assay 1: GO Enzymatic Assay
GO was incubated with its substrate, glycolate, in 50 mM potassium phosphate buffer, pH 7. […] The enzyme was optimized and the kinetics was determined.
Compound inhibition was determined by adding various concentrations of inhibitors in the GO enzyme assay. The IC50 value for each measured compound was generated from sigmoidal dose-response (variable slope) curves with GraphPad Prism software (GraphPad Software, Inc., San Diego, Calif.) using the percent inhibition of GO activity relative to DMSO control.

[1] = Table 4, class symbols without asterisk, GO Enzymatic Assay (Assay 1), read-out: Range
[2] = human GO, glycolate substrate, pH 7, percent inhibition relative to DMSO control, read-out: Range of IC50 values calculated from the enzymatic assays (Assay 1)

SMILES | IC50 [1] [nM] | IC50 [2] [nM]
O=C(O)c1[nH]nnc1COC1CCN(c2cc(Cl)cc(Cl)c2)CC1 [Example 477, 4-(((1-(3,5-dichlorophenyl)piperidin-4-yl)oxy)methyl)-1H-1,2,3-triazole-5-carboxylic acid] | < 100 | 
N#Cc1ccc(COc2cc(Oc3nn[nH]c3C(=O)O)ccc2Cl)cc1 [Compound 423, 4-(4-chloro-3-((4-cyanobenzyl)oxy)phenoxy)-1H-1,2,3-triazole-5-carboxylic acid] | < 100 | 
O=C(O)c1[nH]nnc1S[C@H]1CC[C@H](c2ccc(OC(F)(F)F)cc2)CC1 [Compound 422, 4-(((trans)-4-(4-(trifluoromethoxy)phenyl)cyclohexyl)thio)-1H-1,2,3-triazole-5-carboxylic acid] | < 100 | 
O=C(O)c1[nH]nnc1S[C@H]1CC[C@H](c2cc(OC(F)(F)F)ccc2Cl)CC1 [Compound 411, 4-(((trans)-4-(2-chloro-5-(trifluoromethoxy)phenyl)cyclohexyl)thio)-1H-1,2,3-triazole-5-carboxylic acid] | < 100 | 
C[N+](C)(C)CCOC(=O)c1[nH]nnc1Sc1ccc(-c2ccc(OC(F)(F)F)cc2)cc1 [Compound 38, N,N,N-trimethyl-2-((4-((4′-(trifluoromethoxy)-[1,1′-biphenyl]-4-yl)thio)-1H-1,2,3-triazole-5-carbonyl)oxy)ethan-1-aminium iodide] |  | 1000 to 10000
O=C(O)c1[nH]nnc1Oc1ccc(Cl)c(OC2CCCCC2)c1 [Compound 399, 4-(4-chloro-3-(cyclohexyloxy)phenoxy)-1H-1,2,3-triazole-5-carboxylic acid 2,2,2-trifluoroacetate] | < 100 | 
O=C(O)c1[nH]nnc1O[C@H]1CC[C@H](c2ccc(OC(F)(F)F)cc2)CC1 [Compound 272-1, 4-(((trans)-4-(4-(trifluoromethoxy)phenyl)cyclohexyl)oxy)-1H-1,2,3-triazole-5-carboxylic acid] |  | < 100
O=C(O)c1[nH]nnc1SC1CCN(c2cc(Cl)ccc2OC(F)(F)F)CC1 [Compound 386, 4-((1-(5-chloro-2-(trifluoromethoxy)phenyl)piperidin-4-yl)thio)-1H-1,2,3-triazole-5-carboxylic acid 2,2,2-trifluoroacetate] | < 100 | 
O=C(O)c1[nH]nnc1O[C@H]1CC[C@H](c2ccc3ncccc3c2)CC1 [Compound 409, 4-(((trans)-4-(quinolin-6-yl)cyclohexyl)oxy)-1H-1,2,3-triazole-5-carboxylic acid 2,2,2-trifluoroacetate] | < 100 | 
O=C(O)c1[nH]nnc1Oc1ccc(Cl)c(OC2CC2)c1 [Compound 445, 4-(4-chloro-3-cyclopropoxyphenoxy)-1H-1,2,3-triazole-5-carboxylic acid] | < 100 | 
O=C(O)c1[nH]nnc1O[C@H]1CC[C@@H](c2ccc(OC(F)(F)F)cc2)CC1 [Compound 272-2, 4-(((cis)-4-(4-(trifluoromethoxy)phenyl)cyclohexyl)oxy)-1H-1,2,3-triazole-5-carboxylic acid] |  | < 100
CS(=O)(=O)c1ccc([C@H]2CC[C@H](Sc3nn[nH]c3C(=O)O)CC2)cc1 [Compound 439, 4-(((trans)-4-(4-(methylsulfonyl)phenyl)cyclohexyl)thio)-1H-1,2,3-triazole-5-carboxylic acid 2,2,2-trifluoroacetate] | < 100 | 
O=C(O)c1[nH]nnc1O[C@H]1CC[C@@H](c2ccc(N3CCCCC3=O)cc2)CC1 [Compound 379, 4-(((cis)-4-(4-(2-oxopiperidin-1-yl)phenyl)cyclohexyl)oxy)-1H-1,2,3-triazole-5-carboxylic acid] | < 100 | 
O=C(O)c1[nH]nnc1O[C@H]1CC[C@H](c2ccc(-c3nnc[nH]3)cc2)CC1 [Compound 425, 4-(((trans)-4-(4-(4H-1,2,4-triazol-3-yl)phenyl)cyclohexyl)oxy)-1H-1,2,3-triazole-5-carboxylic acid] | < 100 | 
O=C(O)c1[nH]nnc1Sc1ccc(-c2ccc(N3CCCCC3)c(Cl)c2)cc1 [Compound 376, 4-((3′-chloro-4′-(piperidin-1-yl)-[1,1′-biphenyl]-4-yl)thio)-1H-1,2,3-triazole-5-carboxylic acid 2,2,2-trifluoroacetate] | < 100 | 
O=C(O)c1[nH]nnc1CSC1CCN(c2ccc(Cl)c(Cl)c2)CC1 [Compound 384, 4-(((1-(3,4-dichlorophenyl)piperidin-4-yl)thio)methyl)-1H-1,2,3-triazole-5-carboxylic acid 2,2,2-trifluoroacetate] | < 100 | 
O=C(O)c1[nH]nnc1Oc1ccc(-c2ccc(Cl)cc2)c(OCC2CCCC2)c1 [Compound 387, 4-((4′-chloro-2-(cyclopentylmethoxy)-[1,1′-biphenyl]-4-yl)oxy)-1H-1,2,3-triazole-5-carboxylic acid 2,2,2-trifluoroacetate] | < 100 | 
N#Cc1ccc([C@H]2C[C@H](Sc3nn[nH]c3C(=O)O)C2)cc1 [Compound 420, 4-(((trans)-3-(4-cyanophenyl)cyclobutyl)thio)-1H-1,2,3-triazole-5-carboxylic acid 2,2,2-trifluoroacetate] | < 100 | 
O=C(O)c1[nH]nnc1O[C@H]1C[C@H](c2ccc(N3CCCCC3)cc2)C1 [Compound 426, 4-((trans)-3-(4-(piperidin-1-yl)phenyl)cyclobutoxy)-1H-1,2,3-triazole-5-carboxylic acid 2,2,2-trifluoroacetate] | < 100 | 
N#Cc1ccc(Oc2nn[nH]c2C(=O)O)cc1OCc1ccc(F)cc1 [Compound 390, 4-(4-cyano-3-((4-fluorobenzyl)oxy)phenoxy)-1H-1,2,3-triazole-5-carboxylic acid] | < 100 | 
O=C(O)c1[nH]nnc1O[C@H]1CC[C@H](c2ccc(F)cc2F)CC1 [Compound 424, 4-(((trans)-4-(2,4-difluorophenyl)cyclohexyl)oxy)-1H-1,2,3-triazole-5-carboxylic acid 2,2,2-trifluoroacetate] | < 100 | 
O=C(O)c1[nH]nnc1S[C@H]1CC[C@H](c2ccc3ncccc3c2)CC1 [Compound 410, 4-(((trans)-4-(quinolin-6-yl)cyclohexyl)thio)-1H-1,2,3-triazole-5-carboxylic acid 2,2,2-trifluoroacetate] | < 100 | 
O=C(O)c1[nH]nnc1COC1CCN(c2cc(Cl)ccc2Cl)CC1 [Example 481, 4-(((1-(2,5-dichlorophenyl)piperidin-4-yl)oxy)methyl)-1H-1,2,3-triazole-5-carboxylic acid] | 100 to 1000 | 
O=C(O)c1[nH]nnc1O[C@H]1CC[C@H](c2cc(OC(F)(F)F)ccc2Cl)CC1 [Compound 395, 4-(((trans)-4-(2-chloro-5-(trifluoromethoxy)phenyl)cyclohexyl)oxy)-1H-1,2,3-triazole-5-carboxylic acid] | < 100 | 
CN(C)C(=O)c1ccc([C@H]2CC[C@H](Oc3nn[nH]c3C(=O)O)CC2)cc1 [Compound 414, 4-(((trans)-4-(4-(dimethylcarbamoyl)phenyl)cyclohexyl)oxy)-1H-1,2,3-triazole-5-carboxylic acid 2,2,2-trifluoroacetate] | < 100 | 
O=C(O)c1[nH]nnc1Oc1cccc(OC2CCCCC2)c1 [Compound 380, 4-(3-(cyclohexyloxy)phenoxy)-1H-1,2,3-triazole-5-carboxylic acid 2,2,2-trifluoroacetate] | < 100 | 
